The subject of one test is mGluR1. Description: radioligand binding assay, cerebellum membranes. The settings on record: mGluR1, rat; 100 μM. How it is done:
(§1) Nonspecific AMPA, kainate and NMDA binding assays were performed by Eurofins Discovery (Cerep) using rat cerebral cortex membranes and radiolabeled [^3H]AMPA, [^3H]kainic acid and [^3H]CGP 39653, respectively. All compounds were tested at a single concentration of 100 uM in triplicate. mGluR1, mGluR2, mGluR5 and GABAB binding assays were performed by Eurofins Discovery. mGluR1 assay was performed using rat cerebellum membranes and radiolabeled [^3H]quisqalic acid. mGluR2 assay was performed using recombinant Chem-1 cells and [^3H]LY341495. mGluR5 and GABAB binding assays were performed using recombinant CHO-K1 cells and […], respectively. All compounds were tested at a single concentration of 100 uM in triplicate.
(§2) All receptor assays were performed exactly as described in Example 1. Functional assays of all GABAA, NMDA (GluN2A-GluN2D) and AMPA (GluA2) receptor subunits were performed by SB Drug Discovery as a part of their CNS discovery panel using FLIPR technology. All compounds were tested at 7 concentrations in triplicate and EC50/IC50 was determined where applicable. Functional GABAB assay was performed by Eurofins Discovery (Cerep) using Ca^2+-dependent fluorimetry in RBL cells expressing human GABAB (B1/B2) receptor. All compounds were tested at a single concentration of 100 uM in triplicate. […]

The target of another test is T1, mGluR2 (Homo sapiens, UniProt Q14416).
T1 construct: host or cells: Chem-1 cells
T1 sequence (Q14416 19-872): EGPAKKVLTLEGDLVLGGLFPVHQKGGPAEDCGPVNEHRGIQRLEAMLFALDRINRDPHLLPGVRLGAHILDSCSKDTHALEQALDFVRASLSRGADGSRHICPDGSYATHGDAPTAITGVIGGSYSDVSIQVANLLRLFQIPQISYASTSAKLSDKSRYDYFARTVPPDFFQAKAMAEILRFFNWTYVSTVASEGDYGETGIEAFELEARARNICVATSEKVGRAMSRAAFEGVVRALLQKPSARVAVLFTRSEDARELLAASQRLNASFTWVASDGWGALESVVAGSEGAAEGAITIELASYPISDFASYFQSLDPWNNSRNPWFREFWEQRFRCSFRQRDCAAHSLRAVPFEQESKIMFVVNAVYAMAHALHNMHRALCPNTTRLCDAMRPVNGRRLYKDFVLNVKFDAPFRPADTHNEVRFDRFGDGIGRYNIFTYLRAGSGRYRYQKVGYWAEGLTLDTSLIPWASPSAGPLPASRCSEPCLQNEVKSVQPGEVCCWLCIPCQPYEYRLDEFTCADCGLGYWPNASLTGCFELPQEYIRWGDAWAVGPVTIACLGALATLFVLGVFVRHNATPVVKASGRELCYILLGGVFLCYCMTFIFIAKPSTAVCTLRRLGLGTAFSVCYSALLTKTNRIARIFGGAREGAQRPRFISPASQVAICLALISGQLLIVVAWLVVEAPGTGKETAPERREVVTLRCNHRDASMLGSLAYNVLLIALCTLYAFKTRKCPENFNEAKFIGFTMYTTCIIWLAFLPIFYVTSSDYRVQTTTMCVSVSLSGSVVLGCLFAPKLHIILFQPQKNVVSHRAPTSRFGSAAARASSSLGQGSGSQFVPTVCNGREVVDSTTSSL
The test is described as follows: radioligand binding assay, recombinant Chem-1 cells. How it is done:
as §1, §2

A further test concerns the target T2, mGluR5 (Homo sapiens, UniProt P41594).
T2 construct: host or cells: CHO-K1 cells
The test is described as follows: radioligand binding assay, recombinant CHO-K1 cells. How it is done: as §1
(§3) All receptor assays were performed exactly as described in Example 1. Functional assays of all GABAA, NMDA (GluN2A-GluN2D) and AMPA (GluA2) receptor subunits were performed by SB Drug Discovery as a part of their CNS discovery panel using FLIPR technology. All compounds were tested at 7 concentrations in triplicate and EC50/IC50 was determined where applicable. Functional GABAB assay was performed by Eurofins Discovery (Cerep) using Ca^2+-dependent fluorimetry in RBL cells expressing human GABAB (B1/B2) receptor. All compounds were tested at a single concentration of 100 uM in triplicate. Nonspecific AMPA, kainate and NMDA binding assays were performed by Eurofins Discovery (Cerep) using rat cerebral cortex membranes and radiolabeled [^3H]AMPA, [^3H]kainic acid and [^3H]CGP 39653, respectively. All compounds were tested at a single concentration of 100 uM in triplicate. mGluR1, mGluR2, mGluR5 and GABAB binding assays were performed by Eurofins Discovery. All compounds were tested at a single concentration of 100 uM in triplicate.

The next test deals with NMDA nonspecific. Description: radioligand binding assay, cerebral cortex membranes, [3H]CGP 39653. To be noted: NMDA nonspec, rat; 100 μM. How it is done: as §1, §2
A further test concerns kainate nonspecific. The test is described as follows: radioligand binding assay, cerebral cortex membranes, [3H]kainic acid. To be noted: kainate nonspec, rat; 100 μM. How it is done: as §1, §2
Another test concerns the target T3, GABAA α4β2γ2 (Homo sapiens, UniProt P18507+P47870+P48169).
T3 construct: host or cells: HEK 293 (stably expressing)
The test is described as follows: FLIPR functional assay, HEK 293 cells (agonist/PAM/antagonist). In kind it is cell-based. The settings on record: top concentration 1 mM, read-out: EC50, functional agonist receptor assay. How it is done: (§4) Functional assays of all GABAA, NMDA (GluN2A-GluN2D) and AMPA (GluA2) receptor subunits were performed by SB Drug Discovery as a part of their CNS discovery panel using FLIPR technology. Briefly, receptor-expressing HEK 293 cell lines were incubated in a red membrane potential dye in HEPES:HBSS pH 7.4 buffer and the fluorescence (λex: 488, λex: 510-570) was monitored over time as the test compounds and/or reference compounds were added to the solution. In agonist assay, only test compounds were added. In positive allosteric modulator assay, cells were preincubated with test compounds and then low concentration (approximately EC20) of an appropriate agonist was added. In antagonist assay, cells were preincubated with test compounds and then high concentration (approximately EC80) of an appropriate agonist was added. For GABAA assays, GABA was used as the agonist, picrotoxin was used as the reference antagonist and allopregnanolone was used as the reference positive allosteric modulator (PAM). For NMDA assays, a mixture of glutamate, glycine and CaCl2 was used as the agonist, MK801 was the reference antagonist and pregnenolone sulfate or GNE 9278 were used as reference PAMs. For AMPA assays, glutamate was used as the agonist, CNQX was the reference antagonist and cyclothiazide was used as the reference PAM. All compounds were tested at 7 concentration points in triplicate and EC50/IC50 was determined where applicable. Functional GABAB assay was performed by Eurofins Discovery (Cerep) using Ca^2+-dependent fluorimetry in RBL cells expressing human GABAB (B1/B2) receptor. All compounds were tested at a single concentration of 100 uM in triplicate.
as §3

A further test addresses T4, GABAA α4β3γ2 (Homo sapiens, UniProt P18507+P28472+P48169).
T4 construct: host or cells: HEK 293 (stably expressing)
The description is as above. In kind it is cell-based. To be noted: top concentration 1 mM, read-out: EC50, functional agonist receptor assay. The method, then:
as §4, §3

The next test has as its target GABAA α6β1γ2 (Homo sapiens, UniProt P18505+Q16445). Described as above. In kind it is cell-based. The settings on record: top concentration 1 mM, read-out: EC50, functional agonist receptor assay. How it is done:
as §4, §3

Another test addresses GABAA α6β3γ2 (Homo sapiens, UniProt P28472+Q16445). The test is described as above. In kind it is cell-based. The settings on record: top concentration 1 mM, read-out: EC50, functional agonist receptor assay. How it is done: as §4, §3
The next test concerns the target T5, GABAB (B1a/B2) (Homo sapiens, UniProt Q9UBS5).
T5 construct: host or cells: CHO-K1
The test is described as follows: radioligand binding assay. The method, then: as §1, §3

The target of the next test is T6, GABAB (B1b/B2) (Homo sapiens, UniProt Q9UBS5).
T6 construct: host or cells: CHO-K1
The test is described as follows: radioligand binding assay. The method, then:
as §1, §3

The next test deals with T7, GABAB (B1/B2) (Homo sapiens, UniProt Q9UBS5).
T7 construct: host or cells: RBL cells
Description: functional assay, Ca2+-dependent fluorimetry in RBL cells. In kind it is cell-based. The settings on record: 100 μM. How it is done: as §4, with “For NMDA assays, a mixture of glutamate, glycine and CaCl2 was used as the agonist, MK801 was the reference antagonist and pregnenolone sulfate or GNE 9278 were used as reference PAMs. For AMPA assays, glutamate was used as the agonist, CNQX was the reference antagonist and cyclothiazide was used as the reference PAM.” left out, “Functional GABAB assay was performed by Eurofins Discovery (Cerep) using Ca^2+-dependent fluorimetry in RBL cells expressing human GABAB (B1/B2) receptor. All compounds were tested at a single concentration of 100 uM in triplicate.” left out
All receptor assays were performed exactly as described in Example 1. […] All compounds were tested at 7 concentrations in triplicate and EC50/IC50 was determined where applicable. […]

The term inhibition denotes the drop in the measured response relative to a control, in per cent. Usually EC50 stands for the concentration that produces a half-maximal response.

T2 sequence (P41594 21-1212): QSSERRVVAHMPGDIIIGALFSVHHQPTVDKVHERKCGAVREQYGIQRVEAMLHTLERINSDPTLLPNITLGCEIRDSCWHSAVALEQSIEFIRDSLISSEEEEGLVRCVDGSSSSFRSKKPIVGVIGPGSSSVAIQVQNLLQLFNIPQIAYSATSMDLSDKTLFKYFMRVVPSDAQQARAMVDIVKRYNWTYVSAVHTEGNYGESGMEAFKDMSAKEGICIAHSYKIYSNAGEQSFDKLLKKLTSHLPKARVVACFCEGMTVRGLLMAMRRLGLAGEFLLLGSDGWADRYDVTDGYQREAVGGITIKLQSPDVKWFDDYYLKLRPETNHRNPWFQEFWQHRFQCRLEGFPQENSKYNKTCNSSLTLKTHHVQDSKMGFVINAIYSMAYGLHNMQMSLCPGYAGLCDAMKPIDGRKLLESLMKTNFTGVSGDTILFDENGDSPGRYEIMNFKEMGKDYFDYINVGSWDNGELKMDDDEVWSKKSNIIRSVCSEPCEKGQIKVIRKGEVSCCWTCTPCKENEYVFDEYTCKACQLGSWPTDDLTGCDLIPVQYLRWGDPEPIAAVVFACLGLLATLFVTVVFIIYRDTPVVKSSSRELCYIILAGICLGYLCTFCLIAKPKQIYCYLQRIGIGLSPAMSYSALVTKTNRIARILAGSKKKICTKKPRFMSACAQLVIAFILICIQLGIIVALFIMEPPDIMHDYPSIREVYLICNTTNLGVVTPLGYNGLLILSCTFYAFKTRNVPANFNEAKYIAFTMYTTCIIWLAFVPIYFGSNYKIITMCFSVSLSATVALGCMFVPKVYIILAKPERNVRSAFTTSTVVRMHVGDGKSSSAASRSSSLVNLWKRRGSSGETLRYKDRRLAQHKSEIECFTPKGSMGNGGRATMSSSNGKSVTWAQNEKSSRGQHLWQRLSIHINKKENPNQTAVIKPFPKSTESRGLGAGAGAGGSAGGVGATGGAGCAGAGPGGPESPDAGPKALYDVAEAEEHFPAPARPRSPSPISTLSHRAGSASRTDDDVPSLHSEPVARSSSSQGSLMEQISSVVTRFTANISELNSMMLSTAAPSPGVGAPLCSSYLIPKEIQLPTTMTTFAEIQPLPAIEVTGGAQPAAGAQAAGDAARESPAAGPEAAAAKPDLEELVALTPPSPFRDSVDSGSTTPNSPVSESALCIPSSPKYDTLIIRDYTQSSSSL
GABAA α6β1γ2, sequence (Q16445 20-453): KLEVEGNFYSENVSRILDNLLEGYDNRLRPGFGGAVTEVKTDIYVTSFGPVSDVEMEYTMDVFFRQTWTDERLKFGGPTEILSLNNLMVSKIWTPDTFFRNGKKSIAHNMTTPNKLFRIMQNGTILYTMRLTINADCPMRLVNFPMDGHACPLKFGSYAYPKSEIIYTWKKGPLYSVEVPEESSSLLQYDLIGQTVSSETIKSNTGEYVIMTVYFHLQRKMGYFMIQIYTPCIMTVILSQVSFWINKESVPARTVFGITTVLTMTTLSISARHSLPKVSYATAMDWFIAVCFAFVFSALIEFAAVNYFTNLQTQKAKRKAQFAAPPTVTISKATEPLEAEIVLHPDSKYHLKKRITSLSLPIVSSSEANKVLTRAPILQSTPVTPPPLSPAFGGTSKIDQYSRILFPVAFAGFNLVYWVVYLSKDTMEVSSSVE
GABAA α6β1γ2, sequence (P18505 26-474): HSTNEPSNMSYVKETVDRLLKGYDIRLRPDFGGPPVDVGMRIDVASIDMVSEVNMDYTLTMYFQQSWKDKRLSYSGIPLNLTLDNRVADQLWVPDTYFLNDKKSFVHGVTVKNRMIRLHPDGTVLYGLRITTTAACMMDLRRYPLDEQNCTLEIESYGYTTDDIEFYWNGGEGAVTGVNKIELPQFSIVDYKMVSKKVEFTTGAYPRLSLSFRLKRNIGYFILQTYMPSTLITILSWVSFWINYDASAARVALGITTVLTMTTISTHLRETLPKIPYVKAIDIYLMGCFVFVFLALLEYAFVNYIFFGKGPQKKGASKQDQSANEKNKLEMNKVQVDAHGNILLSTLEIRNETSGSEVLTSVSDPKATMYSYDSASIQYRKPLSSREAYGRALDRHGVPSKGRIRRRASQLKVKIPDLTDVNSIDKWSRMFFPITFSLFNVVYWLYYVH
GABAA α6β1γ2, sequence (P18507 40-475 partner): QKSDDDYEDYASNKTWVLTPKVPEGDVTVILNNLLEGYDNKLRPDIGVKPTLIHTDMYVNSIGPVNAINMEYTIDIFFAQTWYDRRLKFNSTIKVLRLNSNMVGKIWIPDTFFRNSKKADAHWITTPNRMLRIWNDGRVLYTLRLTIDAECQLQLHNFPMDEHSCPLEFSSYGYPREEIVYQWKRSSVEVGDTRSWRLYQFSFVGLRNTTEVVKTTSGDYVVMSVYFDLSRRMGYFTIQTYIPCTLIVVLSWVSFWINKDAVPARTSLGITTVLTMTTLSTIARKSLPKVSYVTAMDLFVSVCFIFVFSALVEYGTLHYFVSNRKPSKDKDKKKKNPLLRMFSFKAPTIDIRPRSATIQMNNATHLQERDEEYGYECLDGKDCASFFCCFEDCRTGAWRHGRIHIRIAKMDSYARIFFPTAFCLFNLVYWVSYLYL
GABAA α6β3γ2, sequence (Q16445 20-453): as the sequence (Q16445 20-453) above
GABAA α6β3γ2, sequence (P28472 26-473): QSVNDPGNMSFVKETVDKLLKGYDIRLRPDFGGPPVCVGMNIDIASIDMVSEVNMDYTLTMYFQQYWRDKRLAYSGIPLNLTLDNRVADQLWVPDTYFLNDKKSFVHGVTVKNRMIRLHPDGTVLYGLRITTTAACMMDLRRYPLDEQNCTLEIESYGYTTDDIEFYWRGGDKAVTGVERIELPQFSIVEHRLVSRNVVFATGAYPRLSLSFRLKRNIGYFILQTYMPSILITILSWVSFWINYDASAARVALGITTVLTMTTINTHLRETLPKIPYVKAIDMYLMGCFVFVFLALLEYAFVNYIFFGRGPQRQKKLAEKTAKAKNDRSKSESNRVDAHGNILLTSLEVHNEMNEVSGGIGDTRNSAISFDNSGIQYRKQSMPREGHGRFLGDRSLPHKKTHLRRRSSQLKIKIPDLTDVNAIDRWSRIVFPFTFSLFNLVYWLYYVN
GABAA α6β3γ2, sequence (P18507 40-475 partner): as the sequence (P18507 40-475 partner) above
T4 sequence (P48169 36-554): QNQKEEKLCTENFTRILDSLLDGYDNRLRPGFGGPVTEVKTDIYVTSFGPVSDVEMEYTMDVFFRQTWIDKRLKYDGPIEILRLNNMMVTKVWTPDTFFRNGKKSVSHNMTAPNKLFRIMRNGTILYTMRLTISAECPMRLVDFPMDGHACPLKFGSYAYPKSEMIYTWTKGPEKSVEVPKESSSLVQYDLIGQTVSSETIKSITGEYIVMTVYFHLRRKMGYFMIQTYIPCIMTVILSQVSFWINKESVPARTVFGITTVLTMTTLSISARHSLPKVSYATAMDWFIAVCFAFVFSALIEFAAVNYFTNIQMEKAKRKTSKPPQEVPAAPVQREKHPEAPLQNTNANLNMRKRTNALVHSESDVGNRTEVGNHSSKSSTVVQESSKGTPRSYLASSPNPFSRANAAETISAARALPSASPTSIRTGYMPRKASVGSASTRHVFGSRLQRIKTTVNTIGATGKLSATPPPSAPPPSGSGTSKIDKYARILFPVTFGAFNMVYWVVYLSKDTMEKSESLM
T4 sequence (P28472 26-473): as the sequence (P28472 26-473) above
T4 sequence (P18507 40-475): as the sequence (P18507 40-475 partner) above

Turning to `C[C@@](N)(CCC(=O)O)C(=O)O` [(R)-2MeGlu, (R)-2-methylglutamic acid], the entries for the “% of radioligand binding inhibition” value with mGluR1, with NMDA nonspecific and with kainate nonspecific were −3%, 8% and 18%, respectively. Moreover, the inhibition at 100 µM at mGluR2 is -3%; at mGluR5 (first mGluR5 row of Table 5) it was -20%; on mGluR5 (second mGluR5 row of Table 5), -2%; at GABAB (B1a/B2), 18%; at GABAB (B1b/B2), 13%. Moreover, the EC50 is 1250 µM at GABAA α4β2γ2, more than 1000 µM at GABAA α4β3γ2, 772 µM on GABAA α6β1γ2 and more than 1000 µM on GABAA α6β3γ2. Also, the “% of agonist response” value at GABAB (B1/B2) is reported as 0%.
For the molecule `C[C@](N)(CCC(=O)O)C(=O)O` [(S)-2MeGlu, (S)-2-methylglutamic acid], the “% of radioligand binding inhibition” value in the test with mGluR1 came to 6%; in the test with NMDA nonspecific, 3%; with kainate nonspecific, 20%. The inhibition at 100 µM at mGluR2 is 25%; at mGluR5 (first mGluR5 row of Table 5), 11%; at mGluR5 (second mGluR5 row of Table 5), -4%; on GABAB (B1a/B2) it was 6%; at GABAB (B1b/B2) it was 14%. Moreover, the EC50 on GABAA α4β2γ2 was 1020 µM; on GABAA α4β3γ2, more than 1000 µM; on GABAA α6β1γ2 it was 280 µM; at GABAA α6β3γ2, 998 µM. Further, on GABAB (B1/B2), the “% of agonist response” value was 0%.

The record behind these values is patent US12589087B2, “Enantiomer selective action on neurotransmission” (The Board of Trustees of the Leland Stanford Junior …, priority 2021, dated 2026).
